According to PubChem BioAssay (NCI):
“And” between values parts separate entries of the source, which are not always exact repeats. Equal entries are not always repeated.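 Five concentrations, 48 hours, 96-well plates. Here, GI50 denotes the concentration required for 50% inhibition of growth. TGI: concentration producing complete growth inhibition.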

Key:
Test in all cases: NCI-60 cell line screen, 48 h
XF 498 CNS = system: XF 498 CNS
HOP-18 NSCLC = system: HOP-18 NSCLC
M19-MEL melanoma = system: M19-MEL melanoma
M14 melanoma = system: M14 melanoma
SR leukemia = system: SR leukemia
KM20L2 colon = system: KM20L2 colon
DLD-1 colon = system: DLD-1 colon
SNB-78 CNS = system: SNB-78 CNS
T-47D breast = system: T-47D breast
MDA-MB-231 breast = system: MDA-MB-231 breast
HS 578T breast = system: HS 578T breast
DMS 273 small cell lung = system: DMS 273 small cell lung
BT-549 breast = system: BT-549 breast
MDA-N = system: MDA-N

| SMILES | TGI (XF 498 CNS) | TGI (HOP-18 NSCLC) | TGI (M19-MEL melanoma) | TGI (M14 melanoma) | TGI (SR leukemia) | TGI (KM20L2 colon) | TGI (DLD-1 colon) | TGI (SNB-78 CNS) | GI50 (T-47D breast) | TGI (T-47D breast) | GI50 (MDA-MB-231 breast) | TGI (MDA-MB-231 breast) | GI50 (M14 melanoma) | GI50 (HS 578T breast) | TGI (HS 578T breast) | GI50 (SR leukemia) | TGI (DMS 273 small cell lung) | TGI (BT-549 breast) | TGI (MDA-N) | GI50 (BT-549 breast) |
| --- | --- | --- | --- | --- | --- | --- | --- | --- | --- | --- | --- | --- | --- | --- | --- | --- | --- | --- | --- | --- |
| COCCOCOC(C)(C)[C@H](CCO)O[Si](c1ccccc1)(c1ccccc1)C(C)(C)C | 13.5 µM | 31.9 µM | 26.9 µM | 21.8 µM | 16.3 µM | 24.4 µM | 22.4 µM | 35.1 µM |  |  |  |  |  |  |  |  |  |  |  |  |
| O=C1c2ccccc2C(=O)c2c1cc1c(c2[N+](=O)[O-])OCO1 |  |  |  | 16.9 µM | 1.55 µM |  |  |  | 0.551 µM | 6.33 µM | 1.45 µM | 6.79 µM | 3.78 µM | 2.28 µM | 6.02 µM | 0.242 µM |  |  |  |  |
| CC(C)=CC(=O)OC1C2C(C)=CC(O)C(O)C2(C)C2C3(O)OCC24C(CC(=O)OC14)C(C)C3O (stereo not drawn) | 0.587 µM | 7.58 µM | 0.127 µM |  |  | 4.57 µM | 0.485 µM | 1.11 µM |  |  |  |  |  |  |  |  | 0.101 µM |  |  |  |
| OC1COC(OCc2ccccc2)C(O)C1O (stereo not drawn) |  |  |  | > 100 µM | > 100 µM |  |  |  |  | > 100 µM |  | > 100 µM |  |  | > 100 µM |  |  | > 100 µM | > 100 µM |  |
| CC(C)=CCC/C(C)=C/CCC1(C)C=Cc2c(c3ccccc3oc2=O)O1 (stereo not drawn) | 29.4 µM | 32.6 µM | 31.4 µM |  |  | 34 µM | 28.5 µM | > 92.8 µM |  |  |  |  |  |  |  |  | 32 µM |  |  |  |
| C/C(=N\NC(=S)Nc1ccc([N+](=O)[O-])cc1)c1nc2ncccc2[nH]1 |  |  |  | 6.37 µM | > 100 µM |  |  |  |  | 22.9 µM |  | > 100 µM |  |  | 6.51 µM |  |  | 2.35 µM | > 100 µM |  |
| Cc1cccc(CNc2ncnc3[nH]ncc23)c1 |  |  |  | > 100 µM | > 100 µM |  |  |  |  | > 100 µM |  | > 100 µM |  |  | > 100 µM |  |  | > 100 µM | > 100 µM |  |
| COc1cc(/C=C/C2=C(C#N)C(=O)OC2(C)C)ccc1O |  | > 100 µM | > 100 µM |  | 67.3 µM | > 100 µM | > 100 µM | > 100 µM |  |  |  |  |  |  |  |  | > 100 µM |  |  |  |
| CCCCCCCCCCCCC(O)C(=O)O (stereo not drawn) |  |  |  | > 100 µM |  |  |  |  |  | > 100 µM |  | > 100 µM |  |  | > 100 µM |  |  | > 100 µM | > 100 µM |  |
| O=C(O)CCCc1ccccc1 |  |  |  | > 1000 µM | > 1000 µM |  |  |  | 203 µM and > 1000 µM | > 1000 µM | 338 µM and > 1000 µM | > 1000 µM | > 1000 µM | > 1000 µM | 625 µM and > 1000 µM | 215 µM and 28.5 µM |  | > 1000 µM | > 1000 µM | 242 µM and > 1000 µM |
| C/C(N=NS(=O)(=O)c1ccc(C)cc1)=C1\C=CC=CN1O | > 100 µM | > 100 µM | > 100 µM | > 100 µM | > 100 µM | > 100 µM | > 100 µM | > 100 µM |  |  |  |  |  |  |  |  | > 100 µM |  |  |  |
| COc1cc(C(=O)C2CC3(CCC2(O)c2cc(OC)c(OC)c(OC)c2)CC(=O)Nc2ccccc2C3=O)cc(OC)c1OC (stereo not drawn) |  |  |  | > 100 µM | > 100 µM |  |  |  |  | > 100 µM |  | > 100 µM |  |  | > 100 µM |  |  | > 100 µM | > 100 µM |  |
| Cc1cn(C2CC(O)C(Cn3nncc3Cn3ncc(=O)[nH]c3=O)O2)c(=O)[nH]c1=O (stereo not drawn) |  |  |  | > 100 µM |  |  |  |  |  | > 100 µM |  | > 100 µM |  |  | > 100 µM |  |  | > 100 µM | > 100 µM |  |
| c1ccc2cc3c(cc2c1)OP1(Oc2cccc4cccnc24)(O3)Oc2cc3ccccc3cc2O1 | 9.98 µM | 56.3 µM | 38.1 µM |  |  | 20.3 µM | > 100 µM | > 100 µM |  |  |  |  |  |  |  |  | 12.4 µM |  |  |  |
| Cc1c(C2=NN=C(N=Nc3c(O)cccc3O)/C2=C/c2ccccc2)c(=O)n(-c2ccccc2)n1C | > 100 µM | > 100 µM | > 100 µM |  |  | > 100 µM | > 100 µM | > 100 µM |  |  |  |  |  |  |  |  | > 100 µM |  |  |  |
| CC1SC(c2ccc(Cl)cc2)N(CCc2cccs2)C1=O (stereo not drawn) |  |  |  |  |  |  |  |  | 1.29 µM | 6.64 µM | 1.55 µM | 3.28 µM |  | 1.53 µM | 4.1 µM |  |  | 2.81 µM |  | 1.49 µM |
